In patent US9352050B2, “Processes for preparing peptide conjugates and linkers” (PFIZER INC., priority 2011, dated 2016):

What was measured:
Assay type in all cases: physicochemical
[1] = Storage stability of activated esters of acid 6 at room temperature; details: solid, in contact with air
Excerpt: This cyclic byproduct became the major constituent of the isolated solid after only a few days at RT. Since this side-reaction was envisioned to become even more problematic on scale due to the longer timelines for processing and isolation, a search for an alternative activating group for acid 6 was undertaken.

[2] = Solubility and dissolution of peptide-linker conjugate and peptide in solvents and buffers
Excerpt: The process for the formation of the drug substance 5 was originally described in U.S. Pat. No. 8,288,349 whose contents are hereby incorporated. The original process involved use of propylene glycol as the cosolvent in the conjugation process between peptide-linker 3 and the antibody h38C2. […] The more amorphous solid form is usually more soluble in different solvents and buffer solutions. […] During preparation of bioconjugate 5, it is desirable to have a conjugation mixture as a homogeneous solution at the beginning of the reaction in order to afford consistent reaction kinetics and more robust manufacturing process.
In the original process, propylene glycol was used as a cosolvent primarily to assist in the dispersion of the hydrophobic peptide-linker 3b in the aqueous histidine buffer solution at pH 6.5.

[3] = Degradation of peptide 3b in the conjugation mixture; details: higher temperatures (30-35° C.) and higher pH (about pH7.5)
Protocol: In order to investigate the impact of different conjugation reaction variables on the reaction rate, product quality and yield, a set of experiments were executed using design of experiments (DOE) approach. Three parameters were chosen for evaluation: pH of the conjugation mixture, temperature of the conjugation and the ratio of peptide to starting antibody. Other parameters such as composition of the buffer solution (20 mM histidine buffer), antibody concentration (16.7 mg/mL) and concentration of DMSO in solution (7%) were kept constant. The centre point for each parameter was pH6.5, 20° C. and a peptide:antibody ratio of 2.4:1. The low levels tested were pH5.5, 5° C. and a ratio of 1.8, and the high levels were pH7.5, 35° C. and a ratio of 3.
Several experiments whose variable values were at the center-point of all the parameter ranges were selected to provide information on possible non-linear effects. The protocol for these experiments was briefly as follows: Peptide 3b (25 mg) was placed in a 20 mL vial equipped with a magnetic stir bar. The solid was dissolved in DMSO (2.1 mL). Histidine buffer (20 mM, pH 6.5, 2.1 mL) was added to the solution. […] The reaction was monitored for completion by SEC and HIC chromatography methods. […] The in-situ yield of 5 and time of reaction completion (hours) were evaluated by HIC and SEC chromatographic methods. […]

O=C(COCC(=O)ON1C(=O)CCC1=O)Nc1ccc(CCC(=O)N2CCC2=O)cc1 [compound 8]
Storage stability [1]: increasing amounts of the second component were noticed after the solid had been set aside for only a few hours

CC(=O)NCCCC[C@H](N)C(=O)O [compound 2]
solubility ([2]; MeCN or MeOH): low solubility

CSCC[C@H](NC(=O)[C@H](Cc1ccccc1)NC(=O)[C@H](CCC(N)=O)NC(=O)[C@H](CC(=O)O)NC(=O)[C@H](Cc1ccc(O)cc1)NC(=O)[C@H](CC(C)C)NC(=O)[C@@H](NC(=O)[C@H](CCCCNC(=O)COCC(=O)Nc1ccc(CCC(=O)N2CCC2=O)cc1)NC(=O)[C@H](CC(=O)O)NC(=O)[C@H](CCCCNC(C)=O)NC(=O)[C@H](CCC(=O)O)NC(=O)[C@H](CC(=O)O)NC(=O)[C@H](CC(C)C)NC(=O)[C@@H]1CCCN1C(=O)[C@H](CCC(N)=O)NC(=O)[C@H](Cc1ccc(O)cc1)NC(=O)[C@H](CCCCNC(C)=O)NC(=O)[C@H](CCC(N)=O)NC(C)=O)C(C)O)C(=O)N[C@@H](CC(C)C)C(=O)N[C@@H](CCC(N)=O)C(=O)N[C@@H](CCC(N)=O)C(=O)NCC(N)=O (stereo partly drawn) [3b]
Solubility in propylene glycol [2]: very low solubility
Solubility in solvents other than DMSO [2]: limited solubility
solubility ([2]; Solubility in DMSO): ≥ 100 mg/mL
Degradation rate [3]: occurs at a faster rate
